# Laboratory results from US6316190A (The United States of America as represented by the …).
# Key:
# [1] = test system: HIV-1 NC protein; experiment: Tryptophan fluorescence titration of NC with oligonucleotide, then NaCl dissociation; assay type: binding; conditions: for K° relative to expected value (weighted average of corresponding homopolymers) / hydrophobic component, apparent affinity constant at 1M NaCl (K°): 1M NaCl; for apparent affinity of NC: fluorescence
# [2] = test system: recombinant HIV-1 NC protein; experiment: Surface plasmon resonance (BIAcore) binding of NC to immobilized biotinylated oligonucleotides; conditions: for NC binding to oligonucleotide (level and stability during washout): oligonucleotide on chip, 0.15M NaCl; for affinity for HIV-1 NC protein: oligonucleotides including the subsequence
# Experimental: In a preferred embodiment, the assay format is surface plasmon resonance (SPR). The Kd and kinetics of the trial compound-protein interaction are determined in a BIAcore, a biosensor based on surface plasmon resonance. For this technique, protein or trial compound is coupled to a derivatized sensor chip capable of detecting changes in mass. When trial compound or protein is passed over the sensor chip, it binds to the trial compound or protein coupled to the chip, resulting in an increase in mass which is quantifiable. Measurement of the rate of association as a function of trial compound or protein concentration can be used to calculate the association rate constant (kon). After the association phase, buffer is passed over the chip and the rate of dissociation (koff) is determined. Kon is typically measured in the range 1.0×10^2 to 5.0×10^6 and koff in the range 1.0×10^-1 to 1.0×10^-6. The equilibrium constant Kd is often calculated as koff/kon and thus is typically measured in the range 10^-5 to 10^-12. Affinities measured in this manner correlate well with affinities measured in solution by fluorescence quench titration. See, Fisher and Fivash (1994) Curr. Opin. Biotechnol. 5:389-395; Fisher et al. (1994) Methods 6:389-395; Johnsson et al., (1991) Anal. Biochem., 198:268-277; Karlsson et al., (1991) J. Immunol. Methods., 145:229-240; and Johnsson et al., (1991) Anal. Biochem. 198:268-277.
# NC has traditionally been described as a single-stranded nucleic acid-binding protein. To determine whether this conclusion is accurate under SPR conditions, we initially measured binding of recombinant HIV-1 NC to a single-stranded 28-base oligodeoxynucleotide. The sequence of this oligonucleotide contains 20 bases from the 3' end of HIV-1 proviral DNA (i.e., the 3' end of U5). Surface plasmon resonance (SPR) analysis was performed with biotinylated DNA immobilized at its 3' end.
# This possibility was analyzed systematically in the following experiment. Four SPR chips were made containing TGTG (SEQ ID NO:3) at different densities. For each chip, the amount of streptavidin (which holds the biotinylated oligonucleotide on the chip) was measured by SPR analysis before the addition of TGTG (SEQ ID NO:3). The amount of TGTG (SEQ ID NO:3) added to each chip was then quantitated by SPR. Thus, for each chip the ratio of TGTG (SEQ ID NO:3) to streptavidin was empirically determined. Since a streptavidin molecule has four binding sites for biotinylated ligands, the number of streptavidin molecules occupied by 0, 1, 2, 3, or 4 oligonucleotides could be calculated from this ratio, using binomial expansion. Finally, the ability of each chip to bind NC with high affinity was determined by SPR.
# Another important aspect of the experiments described here is that the analyses were performed in 0.15M NaCl. The sequence-independent electrostatic interaction between the positively charged NC protein and nucleic acids is obviously much lower at this moderate ionic strength than in more dilute buffers, so that the differences in affinity for different oligonucleotides are more apparent. […] The additional affinity of NC for a preferred sequence was shown by this analysis to be largely hydrophobic.
# [3] = test system: HIV-1; conditions: cited from earlier work
# [4] = test system: synthetic peptide with a HIV-1 CCHC zinc finger; conditions: cited from earlier work
# [5] = test system: "finger swap" mutants of NC (1.1, 2.2, 2.1); experiment: SPR binding of "finger swap" mutant NC proteins to the 5' site; set-up: species or system HIV-1
# [6] = test system: 2.2 finger swap mutant protein; experiment: Fluorescence binding of 2.2 finger swap mutant protein; set-up: species or system HIV-1; conditions: versus wild-type protein
# [7] = biological target: T1, HIV-1 nucleocapsid protein (NC), wild type (Human immunodeficiency virus 1, UniProt P12493 P12493:378-432); experiment: SPR; four NC per oligo; conditions: label: biotin
# [8] = biological target: T1, HIV-1 nucleocapsid protein (NC), wild …; experiment: SPR; TGTG replaced by AAAA; no high-affinity binding; conditions: label: biotin
# [9] = biological target: T1, HIV-1 nucleocapsid protein (NC), wild …; experiment: SPR; higher level and slower washout than site I DNA
# [10] = biological target: T1, HIV-1 nucleocapsid protein (NC), wild …; experiment: SPR; negligible binding; conditions: label: biotin
# [11] = biological target: T1, HIV-1 nucleocapsid protein (NC), wild …; experiment: SPR; TGTG sufficient for high-affinity binding in A context; conditions: label: biotin
# [12] = biological target: T1, HIV-1 nucleocapsid protein (NC), wild …; experiment: SPR; two NC per oligo; conditions: label: biotin
# [13] = biological target: T1, HIV-1 nucleocapsid protein (NC), wild …; experiment: SPR; 0.15 M NaCl; second independent mode (fast-released fraction); conditions: label: biotin (SPR)
# [14] = biological target: T1, HIV-1 nucleocapsid protein (NC), wild …; experiment: SPR; 0.15 M NaCl; tight binding mode (slow washout); conditions: label: biotin (SPR)
# [15] = biological target: T1, HIV-1 nucleocapsid protein (NC), wild …; experiment: SPR; 0.15 M NaCl; most stable of three subsites; relatively high affinity also by fluorescence; conditions: label: biotin
# [16] = biological target: T1, HIV-1 nucleocapsid protein (NC), wild …; experiment: SPR; conditions: label: 3'-biotin
# [17] = quantitative analysis of SPR data
molecule,measurement,setting,value
d(GA)4,K° relative to expected value (weighted average of corresponding homopolymers),[1],coincided with the value that would be predicted
(TG)5,number of NC molecules bound per oligonucleotide,[2]; SPR,two
"TGTG (DNA, backbone not given here)",high-affinity binding of NC,[2]; highest oligonucleotide density on chip (FIG. 6D),high-affinity binding is achieved
same,initial binding of NC,[2]; oligonucleotide at low density (FIG. 6A),substantial degree of initial binding
d(IT)4,K° relative to expected value (weighted average of corresponding homopolymers),[1],10 times
d(T)10,NC binding to oligonucleotide (level and stability during washout),[2]; SPR,detectable binding
GACTTGTGGA,affinity for HIV-1 NC protein,[2],nanomolar range
AAAATGTGAA,NC binding to oligonucleotide (level and stability during washout),[2]; SPR,binding
"NC(=O)c1cccc(N=O)c1 [NOBA, 3-nitroso benzamide]",effect on virus,[3],viral inactivation
same,effect on zinc of zinc finger peptide,[4],loss of zinc
d(G)9,extent of binding and retention of NC during washout relative to site 1,[2]; SPR,far lower than seen with site 1 sequences
same,NC binding to oligonucleotide (level and stability during washout),[2]; SPR,clear preference
same,apparent affinity of NC,[1],higher than that for the other hompolymeric oligodeoxynucleotides
(dT)9,"hydrophobic component, apparent affinity constant at 1M NaCl (K°)",[1],5×10^1
TGTGT,number of NC molecules bound per oligonucleotide,[2]; SPR,single
same,NC binding to oligonucleotide (level and stability during washout),[2]; SPR,high-affinity binding sites
GCAGTGCAT [site III],NC binding to oligonucleotide (level and stability during washout),[2]; SPR,"significant binding, but at a lower level and a more rapid loss during the washout than was observed with site I"
GACUUGUGG (chemistry not given here),NC binding to oligonucleotide (level and stability during washout),[2]; SPR,at a higher level and washes out more slowly than the binding to the DNA
same,affinity for HIV-1 NC protein,[2],nanomolar range
AAAATCTCTA [site II],NC binding to oligonucleotide (level and stability during washout),[2]; SPR,negligible binding
TGTGTG,affinity for HIV-1 NC protein,[2],nanomolar range
GACTTGTGG [Site I],binding of mutant proteins,[5],some binding
same,washout of mutant proteins,[5]; versus wild-type protein,washed out considerably faster than the wild-type protein
same,dependence of binding on oligonucleotide density,[2]; SPR,essentially independent
same,NC binding to oligonucleotide (level and stability during washout),[2]; SPR,most stable binding
same,apparent affinity of 2.2 mutant,[6],lower apparent affinity than that of wild-type protein
same,apparent affinity of NC,[1],relatively high affinity
TGTGTGTG [d(TG)4],dependence of binding on oligonucleotide density,[2]; SPR,essentially independent
same,number of NC molecules bound per oligonucleotide,[2]; SPR,one
same,"Ka, binding system released more rapidly during washout",[2]; [17],1×10^7
same,"Ka, binding system responsible for slow washout",[2]; [17],2e+09 M⁻¹
same,K° relative to expected value (weighted average of corresponding homopolymers),[1],145 times
same,"hydrophobic component, apparent affinity constant at 1M NaCl (K°)",[1],2.3×10^4
same,difference in binding energy,"[1]; d(TG)4 versus d(IT)4, inferred from difference in affinity",~ 1 kcal/mole
same,apparent affinity of NC,[1],highest affinity
GTGTG,number of NC molecules bound per oligonucleotide,[2]; SPR,single
same,NC binding to oligonucleotide (level and stability during washout),[2]; SPR,high-affinity binding sites
(TG)10,number of NC molecules bound per oligonucleotide,[2]; SPR,four
TGTGTGTGTGTGTGTGTGTG (ssDNA) [(TG)10],binding result,[7],binds
GACTAAAAGA (ssDNA),binding result,[8],no binding
GACUUGUGG (ssRNA) [site I RNA],binding result,[9],binds
AAAATCTCTA (ssDNA) [site II],binding result,[10],no binding
AAAATGTGAA (ssDNA),binding result,[11],binds
TGTGTGTGTG (ssDNA) [(TG)5],binding result,[12],binds
TGTGTGTG (ssDNA) [d(TG)4],Ka,[13],1e+07 M⁻¹
same,Ka,[14],2e+09 M⁻¹
GACTTGTGG (ssDNA) [site I],binding result,[15],binds
GACTTGTGGAAAATCTCTAGCAGTGCAT (ssDNA) [28-mer ss oligodeoxynucleotide (HIV-1 U5 3' end)],binding result,[16],binds
